# Assay results published in patent US20090203661A1, “Betulinic acid, derivatives and analogs thereof and uses therefor” (priority 2006, published 2009).
# System: LNCaP cell xenografts
# Assay: LNCaP xenograft in athymic nude mice
# Assay type: in vivo
# Method: Male athymic BALB/c nude mice (age 4-6 weeks) were purchased from Harlan (Indianapolis, Ind.). LNCaP cells (1×106) were implanted with matrigel (BD Biosciences, San Jose, Calif.) subcutaneously into the flank of each mouse. Ten days after cell inoculation, animals were divided into three groups of 10 mice each. The first group received 100 μL vehicle (1% DMSO in corn oil) by oral gavage and the second and third groups of animals received 10 and 20 mg/kg/d doses of BA in vehicle every second day for 14 days (7 doses). The mice were weighed, and tumor areas were measured throughout the study. After 22 days, the animals were sacrificed, final body and tumor weights were determined and selected tissues were further examined by routine hematoxylin and eosin staining and immunohistochemical analysis.
# Tissue sections ([…] thick) mounted on poly-Lysine-coated slides were deparaffinized by standard methods. Endogenous peroxidase was blocked by the use of 3% hydrogen peroxide in PBS for 10 min. Antigen retrieval for VEGF and CD31 staining was done for 10 min in 10 mmol/L sodium citrate buffer (pH 6) heated at 95° C. in a steamer followed by cooling for 15 min. […] Hematoxylin and eosin staining was determined as previously described.
structure (smiles),measurement,setting,value
"C=C(C)[C@@H]1CC[C@]2(C(=O)O)CC[C@]3(C)[C@H](CC[C@@H]4[C@@]5(C)CC[C@H](O)C(C)(C)[C@@H]5CC[C@]43C)[C@@H]12 [betulinic acid, Betulinic acid]",changes in organ or body weights or histopathology of liver and other tissues,"10 and 20 mg/kg/d, data not shown",no treatment-related changes
same,mitotic activity in tumors,"treated mice, corn oil group 6-8",1-2 microfigures/hpf
